Assay results: paper PMC7290497, “Tubulin Resists Degradation by Cereblon-Recruiting PROTACs” (Cells, 2020)
Entries after “also recorded” stand apart in the source; their conditions may differ. Where two headings read alike, the source gives them in different places. Square brackets hold non-standard residues; d marks the D form. Peptide text beside a SMILES is read from it. * marks the point of attachment. Dolaproine = CO[C@@H]([C@@H]1CCCN1)[C@@H](C)C(=O)O; X1 = O=C1CCC(N2C(=O)c3cccc(*)c3C2=O)C(=O)N1; Dil = CC[C@H](C)[C@H](NC)[C@@H](CC(=O)O)OC; X2 = C[C@@H](N*)[C@@H](O)c1ccccc1; NMeV = CN[C@H](C(=O)O)C(C)C; 12Ado = NCCCCCCCCCCCC(=O)O

Tests used:
[1] = tested on: α-tubulin (TUBA) and β-tubulin (TUBB) in hTert-RPE1 cells; assay: Western blot of tubulin protein levels (tubulin degradation) in whole-cell extracts; assay type: cell-based, human; conditions: for degradation of tubulin (TUBA and TUBB protein levels, Western blot): normalized to ACTB and DMSO; for tubulin degradation in time-course experiment: five hours, data not shown
Method: (§1) The human telomerase reverse transcriptase immortalized retinal pigment epithelium 1 (hTert-RPE1) cell line used in this study was grown at 37 °C with 5% CO2 in a humidified incubator. Cells were grown in Dulbecco’s modified medium (nutrient mixture F12, DMEM/F12) supplemented with 10% fetal bovine serum, and 1% (v:v) penicillin/streptomycin (pen/strep). The Flp293T-based BRD4BD2-GFP mCherry reporter cell line was grown in DMEM supplemented with 10% FBS. The synthesized small molecules and the parental microtubule poisons were dissolved in DMSO; 0.01% DMSO was used as vehicle control.
Whole-cell extracts for immunoblot analysis were prepared by cell lysis in 2× SDS sample buffer composed of 50 mM Tris-HCl pH 6.8, 2% SDS, 10% glycerol, 143 mM β-mercaptoethanol, 12.5 mM EDTA, and 0.02% bromophenol blue in water. Samples were denatured at 100 °C for 10 min and then subjected to SDS-PAGE gel electrophoresis on 1.5 mm NuPAGE Novex 4–12% Bis-Tris Protein Gels (Thermo Fisher Scientific, Waltham, MA, USA), using the Mini Trans-Blot Cell system (BioRad, Hercules, CA, USA).
(§2) The Precision Plus Protein Dual Color Standard ladder was used for all immunoblots (BioRad, USA). Primary antibodies were diluted: 1:5000 beta-actin (Cell Signaling Technologies, Danvers, MA, USA, #4970), 1:15000 GAPDH (Cell Signaling Technologies, #2118), 1:10000 alpha-tubulin (DM1alpha, Millipore, Burlington, MA, USA, #05-829), and 1:5000 beta-tubulin (Cell Signaling Technologies, # 2128). Secondary antibodies were diluted: 1:15000 goat anti-mouse DyLight 680 conjugated (Thermo Fisher Scientific, #35518), 1:15000 goat anti-rabbit DyLight 800 conjugated (Thermo Fisher Scientific, #35571). The Odyssey Infra-Red Imaging System (LI-COR, Lincoln, NE, USA) equipped with the Image Studio software was used to image and analyze immunoblots. Data plotting and statistical analysis were carried out in Microsoft Excel (Redmond, WA, USA) and R (Vienna, Austria).
As positive controls, we prepared two of the literature molecules, T007-1 and a related T138067 (Figure 2A). We modified the originally reported synthesis of T007-1, instead using 2-chloro-5-nitrobenzoyl chloride, as the reported dicyclohexyl carbodiimide (DCC) coupling with 2-chloro-5-nitrobenzoic acid led to inseparable mixtures of mono- and diacylation (See Supplementary Material for full details). We treated human retinal pigment epithelium 1 (hTert-RPE1) cells, a widely used cell model, with T007-1 and T138067 degraders at a range of concentrations from 5 nM to 10 μM. Prolonged compound treatment was expected to cause activation of the spindle assembly checkpoint and an arrest in the mitotic stage of the cell cycle, which could have an effect on tubulin levels independently of tubulin degradation. To exclude this possibility, we used contact-inhibited quiescent cells (hTert-RPE1 cells stop proliferating at high growth density). In addition, to minimize the probability that some cells escape the cell cycle arrest and continue to proliferate, we opted for a short 5 h treatment of cells with the compounds, which was previously reported to be sufficient to degrade tubulin [35]. […] Therefore, as previously reported, this series of compounds led to degradation of tubulin and a global decrease of both soluble and polymerized tubulin levels.

[2] = tested on: microtubule cytoskeleton in hTert-RPE1 cells; assay: Biochemical partitioning of tubulin into soluble (S) and polymerized (P) fractions; assay type: cell-based, human; conditions: 1 μM, 5 h
Method: as §1
For tubulin partitioning into soluble and polymerized fractions, cells were grown in 12-well dishes at 70–80% confluence. Cells were gently washed with PBS pre-warmed to 37 °C. Soluble tubulin was extracted by incubating cells in 300 µL of tubulin extraction buffer containing 60 mM PIPES (pH 6.8), 25 mM HEPES (pH 7.2), 10 mM EGTA (pH 7–8), 2 mM MgCl2, 0.5% TritonX-100, 10 µM Paclitaxel (Sigma Aldrich, St. Louis, MO USA), and a protease inhibitor tablet (Roche, Branchburg, NJ, USA) for 2 min at room temperature. The extraction buffer with soluble protein was collected and mixed with 100 µL 4× SDS sample buffer. The remaining material containing polymerized tubulin was then collected by adding 400 µL 1× SDS sample buffer and scraping the dish. All samples were denatured at 100 °C for 10 min. Equal aliquots of samples were further concentrated two-fold by evaporation at 100 °C for 3–5 min immediately prior to SDS-PAGE gel electrophoresis.
as §2

CRBN = molecular target: T1, CRBN (Homo sapiens, UniProt Q96SW2); assay: Competitive displacement assay for cellular CRBN engagement (rescue of dBET6-mediated BRD4BD2-eGFP degradation, mCherry reporter cells); assay type: cell-based
T1 construct: Quantitative assessment of intracellular CRBN engagement; endogenous in cells; host or cells: Flp293T-based BRD4BD2-GFP mCherry reporter cell line
Method: as §1
Supplementary Figure S3. MMAE-CRBN compounds engage CRBN in cells. Quantitative assess-ment of intracellular CRBN engagement using a BRD4BRD2-eGFP-mCherry reporter assay. CRBN engagement was assessed by monitoring rescue of dBET6-mediated degradation of BRD4BRD2-eGFP.
Cells stably expressing BRD4BRD2-eGFP and mCherry were treated with 100 nM of dBET6, a specific degrader of BRD4BRD2, and increasing concentrations of the candidate tubulin degraders. The eGFP and mCherry signals were quantified by laser scanning cytometry and the concentration of compound that rescued 50% of BRD4BRD2-eGFP fluorescence (EC50) was determined by nonlinear regression. Data from n=2 biological replicates. Error bars represent standard deviation of the mean. CPD – compound with […]
(also on this page, place not known: BRD4 BRD2-eGFP-mCherry (BJG-02-095)1 100Relative abundance 100Relative abundance 100Relative abundance) […]
Supplementary Figure S6. CA4-CRBN compounds engage CRBN in cells. Quantitative assessment of intracellular CRBN engagement using a BRD4BRD2-eGFP-mCherry reporter assay. CRBN engage-ment was assessed by monitoring rescue of dBET6-mediated degradation of BRD4BRD2-eGFP. Cells stably expressing BRD4BRD2-eGFP and mCherry were treated with 100 nM of dBET6, a specific degrad-er of BRD4BRD2, and increasing concentrations of the candidate tubulin degraders. The eGFP and […]
(also on this page, place not known: BRD4 BRD2-eGFP. (BJG-02-158)10 Relative abundance 100Relativeabundance) […]
3. Competitive displacement assay for cellular CRBN engagement
Cells stably expressing the BRD4BD2-GFP with mCherry reporter were seeded at 30-50% confluency in 384-well plates with 50 µL FluoroBrite DMEM media (Thermo Fisher Scientific A18967) containing 10% FBS per well a day before compound treatment. Compounds and 100 nM dBET6 were dispensed using a D300e Digital Dispenser (HP), normalized to 0.5% DMSO, and incubated with cells for 5 hours. The assay plate was imaged immediately using an Acumen High Content Imager (TTP Labtech) with 488 nm and 561 nm lasers in 2 µm x 1 µm grid per well format. The resulting images were analyzed using CellProfiler.
A series of image analysis steps (‘image analysis pipeline’) was constructed. First, the red and green channels were aligned and cropped to target the middle of each well (to avoid analysis of heavily clumped cells at the edges), and a background illumination function was calculated for both red and green channels of each well individually and subtracted to correct for illumination variations across the 384-well plate from various sources of error. An additional step was then applied to the green channel to suppress the analysis of large auto fluorescent artifacts and enhance the analysis of cell specific fluorescence by way of selecting for objects under a given size, 30 A.U., and with a given shape, speckles. mCherry-positive cells were then identified in the red channel filtering for objects between 8-60 pixels in diameter and using intensity to distinguish between clumped objects. The green channel was then segmented into GFP positive and negative areas and objects were labeled as GFP positive if at least 40% of it overlapped with a GFP positive area. The fraction of GFP-positive cells/mCherry-positive cells in each well was then calculated, and the green and red images were rescaled for visualization. The values for the concentrations that lead to a 50% […]

[3] = hTert-RPE1 cells, 5 nM to 10 μM, 5 h
[4] = IC50, intracellular CRBN engagement (rescue of 50% of BRD4BRD2-eGFP fluorescence), Supplementary Figures S3 and S6, 100 nM dBET6, n=2 biological replicates

Compound	degradation of tubulin (TUBA and TUBB protein levels, Western blot) [1, 3]	microtubule destabilization (soluble S vs polymerized P fraction of tubulin) [2]	cell permeability as judged by the cellular CRBN engagement assay (CRBN)	IC50 (CRBN; [4]) [nM]	further results
CC[C@H](C)[C@@H]([C@@H](CC(=O)N1CCC[C@H]1[C@H](OC)[C@@H](C)C(=O)N[C@H](C)[C@@H](O)c1ccccc1)OC)N(C)C(=O)[C@@H](NC(=O)[C@H](C(C)C)N(C)CCOCCOCCOCCOCCNc1cccc2c1C(=O)N(C1CCC(=O)NC1=O)C2=O)C(C)C (stereo partly shown) [Compound 1]	no degradation	microtubule destabilization	cell-permeable	342	IC50 (CRBN; IC50, cellular CRBN engagement, 100 nM dBET6, 5 hours): 342 nM
CC[C@H](C)[C@@H]([C@@H](CC(=O)N1CCC[C@H]1[C@H](OC)[C@@H](C)C(=O)N[C@H](C)[C@@H](O)c1ccccc1)OC)N(C)C(=O)[C@@H](NC(=O)[C@H](C(C)C)N(C)C(=O)CCCCCCCCCCCNc1cccc2c1C(=O)N(C1CCC(=O)NC1=O)C2=O)C(C)C (stereo partly shown) [Compound 3] ({X1-12Ado}-[NMeV]V[Dil][Dolaproine]-X2)	no degradation	microtubule destabilization	–	–	CRBN engagement / CRBN binding in cells (in words) (CRBN; 100 nM dBET6, 5 hours): very weak CRBN engagement; IC50 (CRBN; 100 nM dBET6, 5 hours, read-out: IC50, cellular CRBN engagement): ~10000 nM
CC[C@H](C)[C@@H]([C@@H](CC(=O)N1CCC[C@H]1[C@H](OC)[C@@H](C)C(=O)N[C@H](C)[C@@H](O)c1ccccc1)OC)N(C)C(=O)[C@@H](NC(=O)[C@H](C(C)C)N(C)CCOCCOCCOCCNc1cccc2c1C(=O)N(C1CCC(=O)NC1=O)C2=O)C(C)C (stereo partly shown) [Compound 5]	–	–	–	467	–
CC[C@H](C)[C@@H]([C@@H](CC(=O)N1CCC[C@H]1[C@H](OC)[C@@H](C)C(=O)N[C@H](C)[C@@H](O)c1ccccc1)OC)N(C)C(=O)[C@@H](NC(=O)[C@H](C(C)C)N(C)CCOCCOCCOCCOCCOCCNc1cccc2c1C(=O)N(C1CCC(=O)NC1=O)C2=O)C(C)C (stereo partly shown) [Compound 6]	–	–	–	440	–
COc1ccc(/C=C\c2cc(OC)c(OC)c(OC)c2)cc1OCCOCCOCCOCCNc1cccc2c1C(=O)N(C1CCC(=O)NC1=O)C2=O (stereo not shown) [Compound 10]	–	–	cell permeable	1480	–
COc1ccc(/C=C\c2cc(OC)c(OC)c(OC)c2)cc1OCCOCCOCCOCCOCCNc1cccc2c1C(=O)N(C1CCC(=O)NC1=O)C2=O (stereo not shown) [Compound 11]	–	–	cell permeable	572	–
COc1ccc(/C=C\c2cc(OC)c(OC)c(OC)c2)cc1OCCOCCOCCOCCOCCOCCNc1cccc2c1C(=O)N(C1CCC(=O)NC1=O)C2=O (stereo not shown) [Compound 12]	–	–	cell permeable	655	–
COc1ccc(/C=C\c2cc(OC)c(OC)c(OC)c2)cc1NCCOCCOCCOCCOCCNc1cccc2c1C(=O)N(C1CCC(=O)NC1=O)C2=O (stereo not shown) [Compound 13]	unsuccessful in degrading tubulin	no microtubule-destabilizing activity	–	–	CRBN engagement / CRBN binding in cells (in words) (CRBN; 100 nM dBET6, 5 hours): efficient binding to CRBN; IC50 (CRBN; Supplementary Figures S3 and S6, 100 nM dBET6, n=2 biological replicates, read-out: IC50, intracellular CRBN engagement (rescue of 50% of BRD4BRD2-eGFP fluorescence)): 3720 nM
O=C(Nc1ccnc(NCc2cccc(Oc3ccccc3)c2)c1)c1cc([N+](=O)[O-])ccc1Cl [Compound T007-1]	decrease in tubulin levels	decreased levels of both soluble (S) and polymerized (P) fractions of tubulin; also recorded: both the S and the P fraction of tubulin decrease	–	–	tubulin degradation in time-course experiment [1]: efficiently degrade tubulin; potency in decreasing tubulin levels, T007-1 compared with T138067 [1, 3]: significantly more potent
COc1ccc(NS(=O)(=O)c2c(F)c(F)c(F)c(F)c2F)cc1F [Compound T138067]	decrease in tubulin levels	both the S and the P fraction of tubulin decrease	–	–	tubulin degradation in time-course experiment [1]: efficiently degrade tubulin
